{
  "source": "paper PMC9054876",
  "about": "(Cancer Chemotherapy and Pharmacology, 2022)",
  "key": {"clinical [1]": {"assay": "clinical", "settings": "for CLpar: typical individual, 500 mg", "source_text": "This step included food status, formulation, and oral dose level.\nIn the second step, the remaining covariates were further evaluated, including demographics (age, body weight, race, and sex), patient characteristics (disease status, i.e., patient or healthy participant, tumor type, National Cancer Institute Organ Dysfunction Working Group [NCI-ODWG] classification of liver impairment, and baseline tumor burden), laboratory values (serum albumin, total bilirubin, alkaline phosphatase, international normalized ratio, and total protein), and co-medications (opioid analgesics and gefitinib).\nSCM was applied in the structural covariate model building step, followed by an adaptive scope reduction (ASR) SCM in the following covariate searching step to reduce run times. For the SCM procedures, the forward selection p value was set to 0.01, and the backward elimination p value to 0.001. The ASR threshold p value was set to the same as the forward p value of 0.01.\nContinuous covariate relationships were coded as power models (Formula 1), and categorical covariates were coded as a fractional difference to the most common category (Formula 2). An alternative ‘hockey-stick’ parameterization (Formula 3) was tested for dose as continuous covariate on bioavailability of the parent drug (Par).1 ParCovm=Cov/Covref^θm 2 ParCovm=1ifCov=Covref1+θmifCov≠Covref 3 ParCovm=1+θm1·Cov-CovrefifCov≤Covref1+θm2·Cov-CovrefifCov>Covref\nModel selection and qualification was based on the changes in the objective function value (OFV) provided by NONMEM and the visual inspection of graphical diagnostics, including goodness-of-fit plots and visual predictive checks (VPCs).\nThe population PK analyses were performed using NONMEM version 7.3.0. Data management and further processing of NONMEM output were performed using R version 3.3.3. VPCs and covariate model building were run on PsN version 4.4.8.\nThe IIV terms are included on CLpar, first-order absorption rate constant (ka), zero-order absorption duration (D1), and bioavailability of parent drug (Fpar)."}, "[2]": {"settings": "cited from earlier work"}, "[3]": {"set-up": "method as in PMID 32562690", "settings": "cited from earlier work"}, "[4]": {"set-up": "method as in manuscript in preparation", "settings": "500 mg single dose TF2, non-compartmental analysis; ref manuscript in preparation; cited from earlier work"}, "[5]": {"settings": "high-fat meal, healthy participants; cited from earlier work"}, "[6]": {"settings": "cited from earlier work", "remark": "listed apart in the source"}, "clinical [7]": {"assay": "clinical", "settings": "human, in vivo, po", "from_the_text": "(§1) The association or lack of association between the observed covariates and model-derived secondary PK parameters [e.g., area under the concentration–time curve over the dosing interval at steady state (AUCτ,ss)] for patients with cancer was illustrated using bootstrap analysis-based forest plots (see ESM 1 for method details). In the bootstrap analysis, N = 100 new data sets were generated with replacement from the analysis data set. The sampling was stratified by study, and the final models were fit to each of the resampled data sets. […] For categorical covariates, the mean and its 5th and 95th percentiles of PK parameters for each category were computed. For continuous covariates, the mean and its 5th and 95th percentiles of PK parameters, corresponding to the 0–5th and 95–100th percentile of the covariate, were computed. The impact of the covariates in the forest plots were presented on a relative scale. The reference value was the arithmetic mean of the corresponding PK parameter.\n(§2) The derivation of these secondary PK parameters is based on a bootstrap analysis (see following). Only participants with at least one observation above the lower limit of quantitation in the analysis data set were included in the derivation of the secondary parameters.\n(§3) In the bootstrap analysis, N = 100 new data sets (with the participants in the analysis data sets with at least one observation with the same number of participants as in the analysis data sets) were drawn with replacement from the analysis data sets. The sampling was stratified by study. The final models were fit to each of the resampled data sets.\n(§4) For each of the N = 100 population parameter vectors, the n observed covariate vectors were used to predict the corresponding n primary and secondary parameters, where n = the unique combination of ID and the time-varying variables formulation, μ-opioids and dose (while National Cancer Institute Organ Dysfunction Group (NCI-ODG) class was handled as a time-varying covariate in the stepwise covariate method (SCM), its baseline value was used in the derivation of the forest plots since NCI-ODG class is derived from total bilirubin, alanine aminotransferase and aspartate aminotransferase, which were also assumed to be time-constant in the forest plot).\n(§5) Descriptive statistics (mean, standard deviation and the 5th and 95th percentiles) were calculated for the n secondary parameters. These summary statistics are the bootstrap estimates of the typical individual value, standard error, and 90% confidence interval of the secondary parameters."}, "[8]": {"settings": "oral, cited from earlier work"}, "[9]": {"assay": "Bootstrap-derived secondary PK parameters, forest plots and model-based simulation", "from_the_text": "as §1, §2, §3, §4, §5"}, "[10]": {"settings": "CF1 vs typical participant taking TF2 with a non-high-fat meal"}, "[11]": {"settings": "fasting vs typical participant taking TF2 with a non-high-fat meal"}, "[12]": {"settings": "final model, reference patient, multiplied by 0.9"}, "[13]": {"settings": "fractional difference to reference category"}, "[14]": {"settings": "bootstrap predicted, cancer patients"}, "[15]": {"settings": "bootstrap predicted, cancer patients, 250 mg/day"}},
  "data": [
    {"smiles": "CN1CCC(COc2cnc(-c3cccc(Cn4nc(-c5cccc(C#N)c5)ccc4=O)c3)nc2)CC1", "note": "[Tepotinib]", "values": [
      {"measurement": "CF1 covariate on ka", "setting": "clinical [1]; CF1 vs TF2", "value": "–0.442"},
      {"measurement": "reduction of Fpar", "setting": "clinical [1]; [10]", "value": 65.6, "unit": "%"},
      {"measurement": "reduction of ka", "setting": "clinical [1]; [10]", "value": 44.2, "unit": "%"},
      {"measurement": "TF1* covariate on ka", "setting": "clinical [1]; TF1* (finely micronized) vs TF2", "value": 0.674},
      {"measurement": "TF1 covariate on ka", "setting": "clinical [1]; TF1 vs TF2", "value": 0.305},
      {"measurement": "TF3 covariate on Fpar", "setting": "clinical [1]; TF3 vs TF2", "value": 0.154},
      {"measurement": "CF1 covariate on Fpar", "setting": "clinical [1]; capsule formulation 1 (non-micronized) vs TF2", "value": "–0.656"},
      {"measurement": "influence of gefitinib co-administration on tepotinib PK", "setting": "clinical [1]; covariate analysis", "value": "No statistically significant influence"},
      {"measurement": "reduction of Fpar", "setting": "clinical [1]; [11]", "value": 20.9, "unit": "%"},
      {"measurement": "reduction of ka", "setting": "clinical [1]; [11]", "value": 56.1, "unit": "%"},
      {"measurement": "DOSE covariate on Fpar", "setting": "clinical [1]; final model", "value": "–0.0412 /100 mg"},
      {"measurement": "D1 (zero-order absorption duration)", "setting": "clinical [1]; final model, reference patient", "value": 4.09, "unit": "h"},
      {"measurement": "CLpar/F (apparent clearance)", "setting": "clinical [1]; final model, reference patient, 500 mg TF2, fed non-high-fat meal, multiplied by 0.9 for salt to base", "value": 20.4, "unit": "L/h"},
      {"measurement": "ka (first-order absorption rate constant)", "setting": "clinical [1]; final model, reference patient, TF2, fed non-high-fat meal", "value": 0.278, "unit": "h⁻¹"},
      {"measurement": "Qpar/F", "setting": "clinical [1]; [12]", "value": 1.32, "unit": "L/h"},
      {"measurement": "Vp,par/F", "setting": "clinical [1]; [12]", "value": 1180, "unit": "L"},
      {"measurement": "Vc,par/F", "setting": "clinical [1]; final model, reference patient, multiplied by 0.9 for salt to base", "value": 1020, "unit": "L"},
      {"measurement": "Colorectal cancer covariate on CLpar/F", "setting": "clinical [1]; fractional difference", "value": "–0.281"},
      {"measurement": "Hepatocellular carcinoma covariate on CLpar/F", "setting": "clinical [1]; fractional difference", "value": 0.130},
      {"measurement": "NCI-ODG class > 0 covariate on Fpar", "setting": "clinical [1]; fractional difference", "value": "–0.0729"},
      {"measurement": "Non-small cell lung cancer covariate on Vc,par/F", "setting": "clinical [1]; fractional difference", "value": "–0.232"},
      {"measurement": "Patient/participant covariate on Vp,par/F", "setting": "clinical [1]; fractional difference", "value": "–0.810"},
      {"measurement": "Study MS200095-0028 covariate on CLpar/F", "setting": "clinical [1]; fractional difference", "value": "–0.115"},
      {"measurement": "μ-Opioids covariate on CLpar/F", "setting": "clinical [1]; fractional difference", "value": "–0.167"},
      {"measurement": "Fasting state covariate on D1", "setting": "clinical [1]; [13]", "value": "–0.370"},
      {"measurement": "Fasting state covariate on Fpar", "setting": "clinical [1]; [13]", "value": "–0.209"},
      {"measurement": "Fasting state covariate on ka", "setting": "clinical [1]; [13]", "value": "–0.561"},
      {"measurement": "High-fat meal covariate on Fpar", "setting": "clinical [1]; [13]", "value": 0.320},
      {"measurement": "half-life", "setting": "clinical [1]; human, in vivo", "value": "~32", "unit": "h"},
      {"measurement": "exposure increase between 500 and 1400 mg", "setting": "clinical [1]; mostly CF2, Study 001", "value": "doubling"},
      {"measurement": "reduction of bioavailability by liver dysfunction (NCI-ODWG)", "setting": "clinical [1]; oral administration", "value": 7.29, "unit": "%"},
      {"measurement": "Age covariate on Vc,par/F", "setting": "clinical [1]; power model", "value": 0.219},
      {"measurement": "Body weight at baseline covariate on Fpar", "setting": "clinical [1]; power model", "value": "–0.475"},
      {"measurement": "INR at baseline covariate on Qpar/F", "setting": "clinical [1]; power model", "value": 3.81},
      {"measurement": "Serum albumin at baseline covariate on Qpar/F", "setting": "clinical [1]; power model", "value": 4.14},
      {"measurement": "eGFR at baseline covariate on CLpar/F", "setting": "clinical [1]; power model", "value": 0.199},
      {"measurement": "time dependence of PK", "setting": "clinical [1]; single dose vs steady state", "value": "time-independent"},
      {"measurement": "CLpar", "setting": "clinical [1]; eGFR 30 mL/min/1.73 m^2", "value": 16.2, "unit": "L/h"},
      {"measurement": "CLpar", "setting": "clinical [1]; eGFR 60 mL/min/1.73 m^2", "value": 18.6, "unit": "L/h"},
      {"measurement": "CLpar", "setting": "clinical [1]; eGFR 80 mL/min/1.73 m^2", "value": 19.7, "unit": "L/h"},
      {"measurement": "CLpar", "setting": "clinical [1]; eGFR 110 mL/min/1.73 m^2", "value": 20.9, "unit": "L/h"},
      {"measurement": "dose proportionality of PK", "setting": "clinical [1]; up to the therapeutic dose of 500 mg", "value": "approximately dose-proportional"},
      {"measurement": "share of administered dose of any single metabolic pathway", "setting": "[2]; based on in vitro studies and human mass balance data", "value": "≤ 25", "unit": "%"},
      {"measurement": "absolute bioavailability", "setting": "[2]", "value": 72, "unit": "%"},
      {"measurement": "contribution to total circulating radioactivity", "setting": "[2]", "value": 55, "unit": "%"},
      {"measurement": "total radiolabeled material excreted via feces", "setting": "[2]; mass balance study", "value": 77.9, "unit": "%"},
      {"measurement": "urinary excretion recovery", "setting": "[2]; mass balance study", "value": 13.6, "unit": "%"},
      {"measurement": "solubility", "setting": "[3]", "value": "low-solubility"},
      {"measurement": "total plasma AUC lower in moderate hepatic impairment than healthy participants", "setting": "[4]", "value": 13, "unit": "%"},
      {"measurement": "increase in tepotinib exposure in the presence of food", "setting": "[5]", "value": "two-fold"},
      {"measurement": "effect of co-administration of tepotinib with gefitinib on exposure", "setting": "[6]", "value": "no effect"},
      {"measurement": "AUC", "setting": "clinical [7]; 250 mg/day", "value": 12300, "unit": "ng·h/mL"},
      {"measurement": "half-life", "setting": "clinical [7]; 500 mg", "value": 102, "unit": "h"},
      {"measurement": "AUC", "setting": "clinical [7]; 500 mg/day", "value": 22300, "unit": "ng·h/mL"},
      {"measurement": "Cmax", "setting": "clinical [7]; 500 mg/day", "value": 1240, "unit": "ng/mL"},
      {"measurement": "time to maximum concentration (Tmax)", "setting": "[8]; steady state, fed conditions", "value": "approximately 8 h"},
      {"measurement": "terminal elimination half-life", "setting": "[8]", "value": "approximately 32 h"},
      {"measurement": "CLpar, mean", "setting": "[9]; bootstrap predicted typical individual, cancer patients, multiplied by 0.9", "value": 19.3, "unit": "L/h"},
      {"measurement": "Fpar actual doses, mean", "setting": "[9]; [14]", "value": 1.12},
      {"measurement": "Tss (time to steady-state), mean", "setting": "[9]; [14]", "value": 128.3, "unit": "h"},
      {"measurement": "t1/2eff (effective half-life), mean", "setting": "[9]; [14]", "value": 32.1, "unit": "h"},
      {"measurement": "Fpar 250 mg, mean", "setting": "[9]; bootstrap predicted, cancer patients, 250 mg", "value": 1.04},
      {"measurement": "C max, ss 250 mg, mean", "setting": "[9]; [15]", "value": 683, "unit": "ng/mL"},
      {"measurement": "Ctrough,ss 250 mg, mean", "setting": "[9]; [15]", "value": 523, "unit": "ng/mL"},
      {"measurement": "Fpar 500 mg, mean", "setting": "[9]; bootstrap predicted, cancer patients, 500 mg", "value": 0.94},
      {"measurement": "Ctrough,ss 500 mg, mean", "setting": "[9]; bootstrap predicted, cancer patients, 500 mg/day", "value": 952, "unit": "ng/mL"},
      {"measurement": "Vss, mean", "setting": "[9]; bootstrap predicted, cancer patients, multiplied by 0.9", "value": "2,091 L"},
      {"measurement": "AUCτ,ss higher in moderate renal impairment", "setting": "[9]; eGFR 39.4-59 vs mean observed eGFR 99.8 mL/min/1.73 m^2, forest plot", "value": 2, "unit": "%"},
      {"measurement": "effect of covariates on tepotinib AUC", "setting": "[9]; race, hepatic impairment, renal impairment, age, sex, body weight, opioid analgesics or gefitinib, 90% CIs within 80–125%", "value": "no or marginal effects"}
    ]},
    {"smiles": "COc1cc2ncnc(Nc3ccc(F)c(Cl)c3)c2cc1OCCCN1CCOCC1", "note": "[gefitinib, reference compound]", "values": [
      {"measurement": "effect of co-administration of tepotinib with gefitinib on exposure", "setting": "[6]", "value": "no effect"}
    ]}
  ]
}
